This is an account of results in patent publication US5137918A, “N-(2'-aminophenyl)-benzamide derivatives process for the preparation thereof and pharmaceutical compositions containing them” (priority 1986, dated 1992).

Series [1] deals with mammary adenocarcinoma 16C tumor cells. Nature of the series: Mamma Adenocarcinoma 16C Cytotoxicity Assay. The note with it: ID50 ≤250 μg/mL assessed as cytostatically active. Type of series: cell-based. Here is the method:
(§1) 4-Acetamino-N-(2'-aminophenyl) benzamide was used as an example of a compound according to the present invention and compared with […] as standard, the outstanding inhibition action of which against various experimental tumors in vitro and in vivo is known. The testing was carried out in vivo with SD-rats against MNU-induced mammary adenocarcinoma and acetoxymethylmethylnitrosamine-induced (AMMN-induced) colon adenocarcinoma. The testing was carried out in vitro in the "colorimetric-cytotoxicity assay" using L1210 and mammary adenocarcinoma 16C tumor cells. In this test system, substances with ID50 values of ≤250 μg/mL are assessed as being cytostatically active.

Series [2] relates to L1210 tumor cells. Nature of the series: L1210 Colorimetric Cytotoxicity Assay. Type of series: cell-based. The note with it: for IC50: Mus musculus, L1210, ID50 ≤250 μg/mL assessed as cytostatically active. On the procedure: as §1
The nature of series [3]: Pharmacokinetic experiments on rats (plasma level, AUC, half-life, bioavailability). Type of series: in vivo. On the procedure:
FIG. 1 is the AUC, rat, after administration of 4-acetamino-N-(2'-aminophenyl)benzamide. The * is intragastral administration (2 mg/kg; 10 mg/kg; 50 mg/kg). The * is intravenous administration (10 mg/kg).
In FIG. 2 the average plasma level of 4-amino-N-(2'-aminophenyl)-benzamide in rats after single administration of 10 mg/kg intragastrally (n=4).
The bioavailability of the active material according to the present invention is 100%. […] This is shown graphically in FIG. 1 of the accompanying drawings.

Series [4] concerns acetoxymethylmethylnitrosamine-induced (AMMN-induced) colon adenocarcinoma. Nature of the series: AMMN-induced colon adenocarcinoma in SD rats. Format: in vivo, Male SD-rats. The note with it: for antineoplastic effect (in words): 10-week treatment, 5 days per week. Here is the method:
as §1
The activity of the compounds A, B, and C was tested in vivo against AMMN-induced colon adenocarcinoma. Male SD-rats were given 2 mg/kg/week acetoxymethylmethylnitrosamine (AMMN) intrarectally for a period of 10 weeks for tumor induction. Animals with manifest tumors were assigned randomly to the test groups.
^a Application via gastric tube, 5 days per week
The animals were examined twice daily. After the 10-week treatment period, the animals were sacrificed and a total necropsy performed. All tumors were individually measured and their volumes added to a total tumor volume.

Series [5] in a line: Acute intragastral toxicity (LD50), 7-day observation. Format: in vivo. As to conditions: male mice.
Series [6] relates to methylnitrosurea-induced (MNU-induced) mammary adenocarcinoma. Nature of the series: MNU-induced mammary adenocarcinoma in SD rats. Format: in vivo, female SD rats. Here is the method:
FIGS. 5 and 6 show the antineoplastic effect of compounds A, B, C at equimolar doses (33 μmol/kg/day); is control; Δ is compound C (8.0 mg/kg), .smallcircle. is compound B (7.5 mg/kg), and .quadrature. is compound A (8.9 mg/kg).
as §1
The in vivo activity of 4-acetamino-N-(2'-aminophenyl)-benzamide was tested against primary mammary adenocarcinoma induced by 3 single IV administrations of methylnitrosurea on Days 50, 71, and 92 following birth in female SD rats. As soon as tumor volumes ≥0.8 cm^3 were reached, test animals were randomized and therapy was started. […] Median tumor volumes and numbers were determined weekly and compared with untreated controls.

What is called IC50 is the midpoint of a concentration-inhibition curve. The term half-life denotes the time needed for the level to fall by half in the phase considered. A word on the LD50: it is the dose at which mortality reaches 50%. Lower therefore signals a more toxic substance. Usually bioavailability stands for the share of a dose that reaches the circulation, judged against a reference dose that is usually intravenous. A word on the T/C: it is the ratio of treated to control.

In brackets after ≈: the same amount, converted by molar mass. Entries after “also recorded” stand apart in the source; their conditions may differ.

Regarding `Nc1ccccc1NC(=O)c1ccc(NC=O)cc1` [4-Formylamino-N-(2'-aminophenyl)-benzamide], the IC50 in series [1] is 0.4 µg/mL (≈ 1.57 µM).

In the case of `Nc1ccccc1NC(=O)c1ccc(NC(=O)CO)cc1` [4-Glycoloylamino-N-(2'-aminophenyl)-benzamide], the IC50 in series [1] was 0.62 µg/mL (≈ 2.17 µM).

As to `CNc1ccc(C(=O)Nc2ccccc2N)cc1` [Compound C, 4-Methylamino-N-(2'-aminophenyl)-benzamide, reference compound], the IC50 in series [2] came out at 4.04 µg/mL (≈ 16.7 µM).

With `Nc1ccc(C(=O)Nc2ccccc2N)cc1` [Compound B, 4-Amino-N-(2'-aminophenyl)-benzamide, reference compound], in series [3] (rat, in vivo, po, 10 mg/kg), the half-life is ~0.25 h. Moreover, the IC50 in series [1] worked out at 0.69 µg/mL (≈ 3.04 µM); in series [2], 2.78 µg/mL (≈ 12.2 µM). Also, the “tumor growth (in words)” value in series [4] (5.9 mg/kg/day) was “arrest of tumor growth”. The “relative median tumor volume T/C” value in series [4] (5.9 mg/kg/day=26 μmol/kg/day, gastric tube, 10 weeks) is on record as 10.6%. Moreover, the “antineoplastic effect (in words)” value in series [4] (gastric tube) is given as “very efficient”.

In the case of `Nc1ccccc1NC(=O)c1ccc(NC(=O)CCO)cc1` [4-(β-hydroxypropionylamino)-N-(2'-aminophenyl)-benzamide], in series [1], the IC50 was 0.77 µg/mL (≈ 2.57 µM).

For the compound `CC(=O)Nc1ccc(C(=O)Nc2ccccc2N)cc1` [Compound A, 4-Acetamino-N-(2'-aminophenyl)-benzamide], the “acute toxicity versus comparison standard (in words)” value in series [5] (acute intragastral administration) is recorded as “considerably less toxic”. Moreover, the LD50 at 168 h in series [5] (mouse, in vivo, po, acute intragastral, n=4, 7-day observation) turned out to be 1600 mg/kg. In series [3] (rat, in vivo), the half-life was in the range of 4.2 to 4.5 h. The “half-life time versus standard (in words)” value in series [3] (rat, in vivo) was “longer half-life time”. Also, the bioavailability in series [3] (rat, in vivo, po, 10 mg/kg) came out at 100%. For the same compound, in series [3] (rats), the “intestinal resorption (in words)” value is “quickly, completely, and dosage-linearly”. The values for the IC50 in series [1] and in series [2] were 0.73 µg/mL (≈ 2.71 µM) and 3.75 µg/mL (≈ 13.9 µM), respectively. For the same compound, the “antineoplastic effect at equimolar doses (in words)” value in series [6] (33 μmol/kg/day, A 8.9, B 7.5, C 8.0 mg/kg) is given as “shows the highest antineoplastic effect”. Also, the “tumor growth, dose dependence and inhibition (in words)” value in series [6] (FIG. 4, 7.5, 10, 12.5 mg/kg intragastrally, 5 times/week for 5 weeks) is on record as “affects tumor growth in a dose-dependent manner with almost complete tumor growth inhibition in the highest dose group”. Besides, the “cytostatic activity (in words)” value in series [2] (Table 1: L1210 and mammary adenocarcinoma 16C, versus comparison standard) is recorded as “acts outstandingly cytostatically; also recorded: about the same or better as that of the comparison standard”. Moreover, the “tumor growth (in words)” value in series [4] (7.0 mg/kg/day) was “completely inhibited further growth of colon carcinoma”. For the same compound, the T/C was 11.1% in series [4] (7.0 mg/kg/day, gastric tube, 10 weeks) and “about 5%” in series [4] (11.9 mg/kg, gastric tube, 10 weeks). The “tumor growth inhibition (in words)” value in series [4] (11.9 mg/kg) is listed as “the growth inhibition is much less”. Further, the “antineoplastic effect (in words)” value in series [4] (gastric tube) is on record as “very efficient”.

In the case of `CC(C)C(=O)Nc1ccc(C(=O)Nc2ccccc2N)cc1` [4-isobutyrylamino-N-(2'-aminophenyl)-benzamide], the IC50 in series [1] is 0.32 µg/mL (≈ 1.08 µM).
